What was measured:
Assay type in all cases: in vivo
[1] = test system: Zymoseptoria tritici strain Zt 19-52; experiment: In planta preventive efficacy on wheat cv. Alixan against Zymoseptoria tritici strain Zt 19-52; conditions: % of length of 2nd leaf blade, preventive 24 h
Protocol: (§1) A series of experiments were conducted to evaluate the efficacy of flumetylsulforim (ADF-16) for treating different strains of Zymoseptoria tritici in comparison with commercially available fungicides. Table 1 describes the Z. tritici strains used in this study and Table 2 describes the fungicides used in this study.
(§2) Winter wheat plants cv. Alixan (Limagrain) at the BBCH 12 growth stage were treated preventively with sterile distilled water (control), ADF-16, penthiopyrad, metconazole or tebuconazole at the rates described in Table 2 with a hand sprayer at 2 bars.
(§3) After treatment, wheat plants were left to dry at room temperature for 1 hour and then placed in a climatic chamber: temperature of 24 °C day/18 °C night-photoperiod of 16 h light/8 h dark and a relative humidity of 65%.
(§4) Untreated or treated whole wheat plants were inoculated 24-hours post-treatment with a calibrated pycnospore suspension of Z. tritici strains Zt StA, Zt 61, Zt 99, Zt 20, Zt 19-52, and Zt 38-02. Three replicates (pots) of 6 wheat plants each were used for each condition tested.
(§5) After inoculation, pots were transferred in a climatic chamber: temperature of 20 °C day/17 °C night—photoperiod of 16 h light/8 h dark and controlled relative humidity.
(§6) Disease assessments were carried out at 15 days post inoculation (dpi), 21 dpi and 28 dpi by measuring the length of the necrosis on the second leaf blade. The intensity of infection was then determined as a percentage of the total length of 2nd leaf blade.
(§7) The fungicide efficacies were determined from the Area Under the Disease Progress Curve (AUDPC) values and expressed as a percentage of the untreated control.
(§8) The AUDPC is a quantitative measure of disease intensity over time. The most commonly used method for estimating the AUDPC, the trapezoidal method, is performed by multiplying the average disease intensity between each pair of adjacent timepoints by the corresponding time interval and this for each time interval. The AUDPC is determined with the following formula by adding all of the trapezoids:
(§9) [formula] • yi=disease severity at the ith observation • ti=time (days) at the ith observation • N=total number of observations

[2] = test system: Zymoseptoria tritici strain Zt StA; experiment: In planta preventive efficacy on wheat cv. Alixan against Zymoseptoria tritici strain Zt StA (control strain, sensitive); conditions: for Disease Severity Intensity: % of length of 2nd leaf blade, preventive 24 h; for AUDPC: control 781.6
Protocol: as §1, §2, §3, §4, §5, §6, §7, §8, §9

[3] = test system: Zymoseptoria tritici strain Zt 99; experiment: In planta preventive efficacy on wheat cv. Alixan against Zymoseptoria tritici strain Zt 99; conditions: for Disease Severity Intensity: % of length of 2nd leaf blade, preventive 24 h; for AUDPC: control 1352.9
Protocol: as §1, §2, §3, §4, §5, §6, §7, §8, §9

[4] = test system: Zymoseptoria tritici strain Zt 20; experiment: In planta preventive efficacy on wheat cv. Alixan against Zymoseptoria tritici strain Zt 20; conditions: % of length of 2nd leaf blade, preventive 24 h
Protocol: as §1, §2, §3, §4, §5, §6, §7, §8, §9

[5] = test system: Zymoseptoria tritici strain Zt 38-02; experiment: In planta preventive efficacy on wheat cv. Alixan against Zymoseptoria tritici strain Zt 38-02; conditions: for Disease Severity Intensity: % of length of 2nd leaf blade, preventive 24 h; for AUDPC: control 1261.4
Protocol: as §1, §2, §3, §4, §5, §6, §7, §8, §9

[6] = test system: Zymoseptoria tritici strain Zt 61; experiment: In planta preventive efficacy on wheat cv. Alixan against Zymoseptoria tritici strain Zt 61; parameters: fungicide efficacy: concentration or dose not given beside the values; conditions: for Disease Severity Intensity: % of length of 2nd leaf blade, preventive 24 h; for AUDPC: control 1194.9
Protocol: as §1, §2, §3, §4, §5, §6, §7, §8, §9

[7] = 15 dpi, rate N (g a.i./ha): ADF-16 100, penthiopyrad 200, metconazole 90, tebuconazole 250, control also no disease
[8] = 15 dpi, rate N/2.5 (g a.i./ha): ADF-16 40, penthiopyrad 80, metconazole 36, tebuconazole 100, control also no disease
[9] = rate N (g a.i./ha): ADF-16 100, penthiopyrad 200, metconazole 90, tebuconazole 250
[10] = rate N/2.5 (g a.i./ha): ADF-16 40, penthiopyrad 80, metconazole 36, tebuconazole 100

## CC1(C)CCC(Cc2ccc(Cl)cc2)C1(O)Cn1cncn1 (centres unmarked) [Metconazole]
[1]; 15 dpi, rate N (g a.i./ha): ADF-16 100, penthiopyrad 200, metconazole 90, tebuconazole 250, control 22.0
  Disease Severity Intensity: 0.0 +/− 0.0b %
[1]; 15 dpi, rate N/2.5 (g a.i./ha): ADF-16 40, penthiopyrad 80, metconazole 36, tebuconazole 100, control 22.0
  Disease Severity Intensity: 0.0 +/− 0.0b %
[1]; 21 dpi, rate N (g a.i./ha): ADF-16 100, penthiopyrad 200, metconazole 90, tebuconazole 250, control 81.7
  Disease Severity Intensity: 0.3 +/− 0.2c %
[1]; 21 dpi, rate N/2.5 (g a.i./ha): ADF-16 40, penthiopyrad 80, metconazole 36, tebuconazole 100, control 81.7
  Disease Severity Intensity: 2.1 +/− 0.8b %
[1]; 28 dpi, rate N (g a.i./ha): ADF-16 100, penthiopyrad 200, metconazole 90, tebuconazole 250, control 91.0
  Disease Severity Intensity: 12.0 +/− 1.9c %
[1]; 28 dpi, rate N/2.5 (g a.i./ha): ADF-16 40, penthiopyrad 80, metconazole 36, tebuconazole 100, control 91.0
  Disease Severity Intensity: 22.4 +/− 2.3b %
[2]; [7]
  Disease Severity Intensity: No disease
[2]; [8]
  Disease Severity Intensity: No disease
[2]; 21 dpi, rate N (g a.i./ha): ADF-16 100, penthiopyrad 200, metconazole 90, tebuconazole 250, control 36.5
  Disease Severity Intensity: 0.0 +/− 0.0b %
[2]; 21 dpi, rate N/2.5 (g a.i./ha): ADF-16 40, penthiopyrad 80, metconazole 36, tebuconazole 100, control 36.5
  Disease Severity Intensity: 0.0 +/− 0.0b %
[2]; 28 dpi, rate N (g a.i./ha): ADF-16 100, penthiopyrad 200, metconazole 90, tebuconazole 250, control 77.4
  Disease Severity Intensity: 0.0 +/− 0.0b %
[2]; 28 dpi, rate N/2.5 (g a.i./ha): ADF-16 40, penthiopyrad 80, metconazole 36, tebuconazole 100, control 77.4
  Disease Severity Intensity: 0.0 +/− 0.0b %
[2]; [9]
  Efficacy (from AUDPC, percentage of the untreated control): 100%
  AUDPC: 0.0 +/− 0.0b
[2]; [10]
  Efficacy (from AUDPC, percentage of the untreated control): 100%
  AUDPC: 0.0 +/− 0.0b
[3]; 15 dpi, rate N (g a.i./ha): ADF-16 100, penthiopyrad 200, metconazole 90, tebuconazole 250, control 47.9
  Disease Severity Intensity: 0.0 +/− 0.0d %
[3]; 15 dpi, rate N/2.5 (g a.i./ha): ADF-16 40, penthiopyrad 80, metconazole 36, tebuconazole 100, control 47.9
  Disease Severity Intensity: 1.3 +/− 1.2d %
[3]; 21 dpi, rate N (g a.i./ha): ADF-16 100, penthiopyrad 200, metconazole 90, tebuconazole 250, control 81.0
  Disease Severity Intensity: 18.2 +/− 2.6d %
[3]; 21 dpi, rate N/2.5 (g a.i./ha): ADF-16 40, penthiopyrad 80, metconazole 36, tebuconazole 100, control 81.0
  Disease Severity Intensity: 58.7 +/− 2.8c %
[3]; 28 dpi, rate N (g a.i./ha): ADF-16 100, penthiopyrad 200, metconazole 90, tebuconazole 250, control 92.2
  Disease Severity Intensity: 86.3 +/− 2.4ab %
[3]; 28 dpi, rate N/2.5 (g a.i./ha): ADF-16 40, penthiopyrad 80, metconazole 36, tebuconazole 100, control 92.2
  Disease Severity Intensity: 84.6 +/− 4.3b %
[3]; [9]
  Efficacy (from AUDPC, percentage of the untreated control): 69.0%
  AUDPC: 419.9 +/− 29.6e
[3]; [10]
  Efficacy (from AUDPC, percentage of the untreated control): 48.9%
  AUDPC: 691.1 ± 28.1 days
[4]; [7]
  Disease Severity Intensity: No disease
[4]; [8]
  Disease Severity Intensity: No disease
[4]; 21 dpi, rate N (g a.i./ha): ADF-16 100, penthiopyrad 200, metconazole 90, tebuconazole 250, control 77.2
  Disease Severity Intensity: 1.9 +/− 0.7cd %
[4]; 21 dpi, rate N/2.5 (g a.i./ha): ADF-16 40, penthiopyrad 80, metconazole 36, tebuconazole 100, control 77.2
  Disease Severity Intensity: 15.1 +/− 2.8b %
[4]; 28 dpi, rate N (g a.i./ha): ADF-16 100, penthiopyrad 200, metconazole 90, tebuconazole 250, control 95.5
  Disease Severity Intensity: 33.0 +/− 3.6d %
[4]; 28 dpi, rate N/2.5 (g a.i./ha): ADF-16 40, penthiopyrad 80, metconazole 36, tebuconazole 100, control 95.5
  Disease Severity Intensity: 78.0 +/− 5.0b %
[5]; 15 dpi, rate N (g a.i./ha): ADF-16 100, penthiopyrad 200, metconazole 90, tebuconazole 250, control 36.0
  Disease Severity Intensity: 0.0 +/− 0.0b %
[5]; 15 dpi, rate N/2.5 (g a.i./ha): ADF-16 40, penthiopyrad 80, metconazole 36, tebuconazole 100, control 36.0
  Disease Severity Intensity: 1.7 +/− 0.9b %
[5]; 21 dpi, rate N (g a.i./ha): ADF-16 100, penthiopyrad 200, metconazole 90, tebuconazole 250, control 84.3
  Disease Severity Intensity: 25.6 +/− 3.9d %
[5]; 21 dpi, rate N/2.5 (g a.i./ha): ADF-16 40, penthiopyrad 80, metconazole 36, tebuconazole 100, control 84.3
  Disease Severity Intensity: 61.8 +/− 2.5bc %
[5]; 28 dpi, rate N (g a.i./ha): ADF-16 100, penthiopyrad 200, metconazole 90, tebuconazole 250, control 95.7
  Disease Severity Intensity: 82.4 +/− 3.4c %
[5]; 28 dpi, rate N/2.5 (g a.i./ha): ADF-16 40, penthiopyrad 80, metconazole 36, tebuconazole 100, control 95.7
  Disease Severity Intensity: 92.1 +/− 1.2b %
[5]; [9]
  Efficacy (from AUDPC, percentage of the untreated control): 64.0%
  AUDPC: 454.7 +/− 29.0c
[5]; [10]
  Efficacy (from AUDPC, percentage of the untreated control): 41.1%
  AUDPC: 743.0 +/− 14.9b
[6]; [7]
  Disease Severity Intensity: No disease
[6]; [8]
  Disease Severity Intensity: No disease
[6]; 21 dpi, rate N/2.5 (g a.i./ha): ADF-16 40, penthiopyrad 80, metconazole 36, tebuconazole 100, control 63.3
  Disease Severity Intensity: 10.1 +/− 1.6c %
[6]; 28 dpi, rate N (g a.i./ha): ADF-16 100, penthiopyrad 200, metconazole 90, tebuconazole 250, control 88.1
  Disease Severity Intensity: 35.1 +/− 3.8d %
[6]; 28 dpi, rate N/2.5 (g a.i./ha): ADF-16 40, penthiopyrad 80, metconazole 36, tebuconazole 100, control 88.1
  Disease Severity Intensity: 65.6 +/− 4.2bc %
[6]; higher application rates (N)
  fungicide efficacy: ≥ 85%
[6]; lower application rates (N/2.5)
  fungicide efficacy: ≤ 70%
[6]; [9]
  Efficacy (from AUDPC, percentage of the untreated control): 85.9%
  AUDPC: 168.8 +/− 45.4cd
[6]; [10]
  Efficacy (from AUDPC, percentage of the untreated control): 68.9%
  AUDPC: 371.8 +/− 48.7b
